Measurements taken from US20250177566A1, “USE OF CHEMICAL EPIGENETIC MODIFIERS TO MODULATE GENE EXPRESSION” (The University of North Carolina at Chapel Hill, priority 2022, published 2025).
Like-named read-outs stand apart in the source and are kept apart here.

Columns and labels:
[1] = test system: CXCR4; experiment: CXCR4 mRNA activation in HCT116 stably expressing dCas9 and MS2-FKBPx2 (WT-FKBP), qRT-PCR; type: cell-based, human; settings: FIG. 6, WT FKBP system, 48 hrs
[2] = test system: CXCR4; experiment: CXCR4 mRNA activation in HCT116 stably expressing dCas9 and MS2-FKBP*x2, qRT-PCR; type: cell-based, human; settings: for fold change, CXCR4 mRNA (CEM Treated vs Non-Treated): 48 hrs; for fold change, CXCR4 mRNA (CXCR4 gRNA vs NT gRNA): FIG. 3B; for fold change, CXCR4 mRNA (CXCR4 gRNA vs NT gRNA) / fold change, CXCR4 mRNA (washout vs AP1867 competition) / fold change, CXCR4 mRNA (Compare to 0 h): CEM207 25 nM; for fold change, CXCR4 mRNA (washout vs AP1867 competition): FIG. 3D; for fold change, CXCR4 mRNA (Compare to 0 h): FIG. 7A
Summary of the method: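 HCT116 cells stably expressing dCas9 and MS2-FKBP*x2 with CXCR4 gRNA were treated with CEMs (screen at 5 nM; 1–50 nM range). CXCR4 mRNA measured by one-step qRT-PCR after 48 h, or at 12–96 h in time course. Reversibility tested by washout after 24 h, optionally with 20 μM AP1867.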

[3] = test system: TRE3G-GFP reporter gene; settings: WT FKBP (MS2-FKBPx2), 48 hrs
Protocol: HCT116 cells were transfected with TRE3G-GFP, dCas9, MS2-FKPB*x2, and TRE3G gRNA or NT gRNA. After 48 hrs of 10 nM SLF*-CEMa treatment, flow cytometry was performed and mean fluorescent value was collected. […] TRE3G-GFP, dCas9, MS2-FKBP*2, TRE3G gRNA or NT gRNA were transfected into HCT116 cells. The media was changed to media with 5 nM CEM207 together with 0 nM, 50 nM, 500 nM or 5000 nM of AP1867, respectively. After 48 hrs chemical exposure, flow cytometry was performed and the mean fluorescent value was measured in each group of cells. […] FIGS. 5D and 5E are dose curves of CEMa molecules activating the GFP reporter gene in HCT116 cells using WT FKBP and dCas9 as DNA binding module. HCT116 cells were transfected with dCas9, MS2-FKBPx2, TRE3G-GFP constructs, along with TRE3G gRNA or NT gRNA. Cells were treated with different concentrations of CEMa molecules for 48 hrs before flow cytometry was conducted. […] Error bars represent the standard deviation.
To better understand the activity of SLF*-CEMa in the WT FKBP-based GFP reporter assay, a similar dose-response assay was conducted in HCT116 cells transfected with dCas9 and MS2-FKBPx2 (FIGS. 1D and 1E).
Flow cytometry. All flow cytometry experiments were performed with Attune Nxt as previously described. […] Significance was determined by Student's t-test.

[4] = test system: TRE3G-GFP reporter gene; experiment: TRE3G-GFP reporter gene activation in HCT116, dCas9 + MS2-FKBP*x2 (F36V) system, flow cytometry; type: cell-based, human; parameters: fold change, GFP: reference not given here; settings: for fold change, GFP (Treated vs Non-Treated): FIG. 1E, 48 hours; for fold change, GFP: 48 hrs

Compound: CC[C@H](C(=O)N1CCCC[C@H]1C(=O)O[C@H](CCc1ccc(OC)c(OC)c1)c1cccc(OCC(=O)NCCOCCOCCNC(=O)C[C@@H]2N=C(c3ccc(Cl)cc3)c3c(sc(C)c3C)-n3c(C)nnc32)c1)c1cc(OC)c(OC)c(OC)c1 [CEM207, (R)-1-(3-((14-((S)-4-(4-Chlorophenyl)-2,3,9-trimethyl-6H-thieno[3,2-f][1,2,4]triazolo[4,3-a][1,4]diazepin-6-yl)-2,13-dioxo-6,9-dioxa-3,12-diazatetradecyl)oxy)phenyl)-3-(3,4-dimethoxyphenyl) propyl(S)-1-((S)-2-(3,4,5-trimethoxyphenyl)butanoyl) piperidine-2-carboxylate]
- fold change, CXCR4 mRNA (CXCR4 gRNA vs NT gRNA) ([1]; 50 nM): 4.2 fold
- fold change, CXCR4 mRNA (CXCR4 gRNA vs NT gRNA) ([1]; 200 nM): 9.1 fold
- fold change, CXCR4 mRNA (CEM Treated vs Non-Treated) ([2]; FIG. 2D, CXCR4 gRNA, 0.5 nM): 2.5 fold
- fold change, CXCR4 mRNA (CEM Treated vs Non-Treated) ([2]; FIG. 2D, CXCR4 gRNA, 1 nM): 7.4 fold
- fold change, CXCR4 mRNA (CEM Treated vs Non-Treated) ([2]; FIG. 2D, CXCR4 gRNA, 5 nM): 28.2 fold
- fold change, CXCR4 mRNA (CEM Treated vs Non-Treated) ([2]; FIG. 2D, CXCR4 gRNA, 25 nM): 48.2 fold
- fold change, CXCR4 mRNA (CEM Treated vs Non-Treated) ([2]; FIG. 2D, CXCR4 gRNA, 50 nM): 34.6 fold
- fold change, CXCR4 mRNA (CEM Treated vs Non-Treated) ([2]; FIG. 2D, NT gRNA, 0.5 nM): 1.17 fold
- fold change, CXCR4 mRNA (CEM Treated vs Non-Treated) ([2]; FIG. 2D, NT gRNA, 1 nM): 0.77 fold
- fold change, CXCR4 mRNA (CEM Treated vs Non-Treated) ([2]; FIG. 2D, NT gRNA, 5 nM): 1.47 fold
- fold change, CXCR4 mRNA (CEM Treated vs Non-Treated) ([2]; FIG. 2D, NT gRNA, 25 nM): 2.21 fold
- fold change, CXCR4 mRNA (CEM Treated vs Non-Treated) ([2]; FIG. 2D, NT gRNA, 50 nM): 1.88 fold
- CXCR4 activation compared to dCas9-p300 ([2]; FIG. 2D, concentrations above 5 nM): higher CXCR4 activation
- fold change, CXCR4 mRNA (CXCR4 gRNA vs NT gRNA) ([2]; 24 h): 18.6 fold
- fold change, CXCR4 mRNA (CXCR4 gRNA vs NT gRNA) ([2]; 48 h): 13.1 fold
- fold change, CXCR4 mRNA (CXCR4 gRNA vs NT gRNA) ([2]; 48 h AP1867 (washout with 20 μM AP1867 after 24 hrs)): 8.3 fold
- fold change, CXCR4 mRNA (CXCR4 gRNA vs NT gRNA) ([2]; 48 h wash (media washout after 24 hrs)): 10.5 fold
- fold change, CXCR4 mRNA (CXCR4 gRNA vs NT gRNA) ([2]; 72 h): 6.8 fold
- fold change, CXCR4 mRNA (CXCR4 gRNA vs NT gRNA) ([2]; 72 h AP1867 (washout with 20 μM AP1867 after 24 hrs)): 4.2 fold
- fold change, CXCR4 mRNA (CXCR4 gRNA vs NT gRNA) ([2]; 72 h wash (media washout after 24 hrs)): 5.4 fold
- fold change, CXCR4 mRNA (CXCR4 gRNA vs NT gRNA) ([2]; 96 h AP1867 (washout with 20 μM AP1867 after 24 hrs)): 2.1 fold
- fold change, CXCR4 mRNA (CXCR4 gRNA vs NT gRNA) ([2]; 96 h wash (media washout after 24 hrs)): 4.3 fold
- fold change, CXCR4 mRNA (washout vs AP1867 competition) ([2]; 48 h): 1.2 fold
- fold change, CXCR4 mRNA (washout vs AP1867 competition) ([2]; 72 h): 2.4 fold
- fold change, CXCR4 mRNA (washout vs AP1867 competition) ([2]; 96 h): 0.57 fold
- fold change, CXCR4 mRNA (Compare to 0 h) ([2]; NT gRNA, 12 h): 0.1 fold
- fold change, CXCR4 mRNA (Compare to 0 h) ([2]; NT gRNA, 24 h): 0.6 fold
- fold change, CXCR4 mRNA (Compare to 0 h) ([2]; NT gRNA, 48 h): 0.7 fold
- fold change, CXCR4 mRNA (Compare to 0 h) ([2]; NT gRNA, 48 h AP1867 (washout with 20 μM AP1867 after 24 hrs)): 0.7 fold
- fold change, CXCR4 mRNA (Compare to 0 h) ([2]; NT gRNA, 48 h wash (media washout after 24 hrs)): 0.8 fold
- fold change, CXCR4 mRNA (Compare to 0 h) ([2]; NT gRNA, 72 h): 0.6 fold
- fold change, CXCR4 mRNA (Compare to 0 h) ([2]; NT gRNA, 72 h AP1867 (washout with 20 μM AP1867 after 24 hrs)): 0.3 fold
- fold change, CXCR4 mRNA (Compare to 0 h) ([2]; NT gRNA, 72 h wash (media washout after 24 hrs)): 0.4 fold
- fold change, CXCR4 mRNA (Compare to 0 h) ([2]; NT gRNA, 96 h): 0.5 fold
- fold change, CXCR4 mRNA (Compare to 0 h) ([2]; NT gRNA, 96 h AP1867 (washout with 20 μM AP1867 after 24 hrs)): 0.6 fold
- fold change, CXCR4 mRNA (Compare to 0 h) ([2]; NT gRNA, 96 h wash (media washout after 24 hrs)): 0.6 fold
- CXCR4 mRNA expression after CEM washout in comparison to cells continuously treated ([2]; FIGS. 3C and 3D, CEM203 50 nM or CEM207 25 nM for 24 hours, then media exchange, all time points): significantly lowered CXCR4 mRNA expression
- time point of highest (peak) CXCR4 mRNA activation ([2]; time course 12, 24, 48, 72, 96 hrs, CXCR4 gRNA): 24 h
- fold change, GFP (Treated vs Non-Treated) ([3]; FIG. 5D, 10 nM): 1.9 fold
- fold change, GFP (Treated vs Non-Treated) ([3]; FIG. 5D, 25 nM): 6.5 fold
- fold change, GFP (Treated vs Non-Treated) ([3]; FIG. 5D, 50 nM): 17.4 fold
- fold change, GFP (Treated vs Non-Treated) ([3]; FIG. 5D, 100 nM): 20.8 fold
- fold change, GFP (Treated vs Non-Treated) ([3]; FIG. 5D, 200 nM): 24.0 fold
- fold change, GFP (Treated vs Non-Treated) ([3]; FIG. 5D, 400 nM): 27.2 fold
- fold change, GFP (Treated vs Non-Treated) ([3]; FIG. 5E, 10 nM): 1.1 fold
- fold change, GFP (Treated vs Non-Treated) ([3]; FIG. 5E, 25 nM): 1.1 fold
- fold change, GFP (Treated vs Non-Treated) ([3]; FIG. 5E, 50 nM): 1.0 fold
- fold change, GFP (Treated vs Non-Treated) ([3]; FIG. 5E, 100 nM): 1.1 fold
- fold change, GFP (Treated vs Non-Treated) ([3]; FIG. 5E, 200 nM): 1.2 fold
- fold change, GFP (Treated vs Non-Treated) ([3]; FIG. 5E, 400 nM): 1.3 fold
- fold change, GFP (Treated vs Non-Treated) ([4]; TRE3G gRNA, 0.25 nM): 2.0 fold
- fold change, GFP (Treated vs Non-Treated) ([4]; TRE3G gRNA, 0.5 nM): 9.1 fold
- fold change, GFP (Treated vs Non-Treated) ([4]; TRE3G gRNA, 0.75 nM): 11.5 fold
- fold change, GFP (Treated vs Non-Treated) ([4]; TRE3G gRNA, 1 nM): 12.8 fold
- fold change, GFP (Treated vs Non-Treated) ([4]; TRE3G gRNA, 2.5 nM): 20.6 fold
- fold change, GFP (Treated vs Non-Treated) ([4]; TRE3G gRNA, 5 nM): 24.0 fold
- fold change, GFP (Treated vs Non-Treated) ([4]; TRE3G gRNA, 7.5 nM): 22.5 fold
- fold change, GFP (Treated vs Non-Treated) ([4]; TRE3G gRNA, 10 nM): 21.4 fold
- fold change, GFP (Treated vs Non-Treated) ([4]; TRE3G gRNA, 25 nM): 21.5 fold
- fold change, GFP (Treated vs Non-Treated) ([4]; TRE3G gRNA, 50 nM): 22.3 fold
- fold change, GFP (Treated vs Non-Treated) ([4]; TRE3G gRNA, 75 nM): 22.5 fold
- fold change, GFP (Treated vs Non-Treated) ([4]; TRE3G gRNA, 100 nM): 21.9 fold
- fold change, GFP ([4]; FIG. 5A, NT gRNA, 10 nM): 0.3 fold
- fold change, GFP ([4]; FIG. 5A, TRE3G gRNA, 10 nM): 12.0 fold
- fold change, GFP ([4]; FIG. 5C, NT gRNA, 0.25 nM): 1.1 fold
- fold change, GFP ([4]; FIG. 5C, NT gRNA, 0.5 nM): 1.1 fold
- fold change, GFP ([4]; FIG. 5C, NT gRNA, 0.75 nM): 1.1 fold
- fold change, GFP ([4]; FIG. 5C, NT gRNA, 1 nM): 1.1 fold
- fold change, GFP ([4]; FIG. 5C, NT gRNA, 2.5 nM): 1.2 fold
- fold change, GFP ([4]; FIG. 5C, NT gRNA, 5 nM): 1.5 fold
- fold change, GFP ([4]; FIG. 5C, NT gRNA, 7.5 nM): 1.5 fold
- fold change, GFP ([4]; FIG. 5C, NT gRNA, 10 nM): 1.4 fold
- fold change, GFP ([4]; FIG. 5C, NT gRNA, 25 nM): 1.6 fold
- fold change, GFP ([4]; FIG. 5C, NT gRNA, 50 nM): 1.6 fold
- fold change, GFP ([4]; FIG. 5C, NT gRNA, 75 nM): 1.5 fold
- fold change, GFP ([4]; FIG. 5C, NT gRNA, 100 nM): 1.5 fold
